Experimental data as given in patent US4200650A, “2-Amino-cyclopent-1-ene-1-thiocarboxylic acid-disulfides to treat noradrenergic malfunctions” (Richter Gedeon Vegyeszeti Gyar Rt., priority 1976, dated 1980).

Columns and labels:
dopamine-β-hydroxylase [1] = experiment: Determination of noradrenaline and dopamine levels of brain (dopamine-β-hydroxylase inhibiting effect); format: in vivo, male Wistar rats; details: i.p., ± standard error
Description: (§1) The dopamine-β-hydroxylase inhibiting effects of the new compounds according to the invention were examined by the following tests:
(§2) The tests were performed on male Wistar rats weighing 150 to 200 g. The dopamine-β-hydroxylase inhibiting effects of the compounds were evaluated by determining the change of noradrenaline, dopamine and adrenaline levels of the cerebrum, heart, spleen and adrenal gland. The serotonine and 5-hydroxy-indolylacetic acid levels of the cerebrum were also determined. The measurements were performed as follows:
(§3) The animals were decapitated, the cerebrum, heart, spleen and adrenal gland were removed quickly, and the organs were frozen by placing them onto a metal sheet cooled with dry ice. The frozen organs were stored for maximum one night at -20° C.
(§4) Determination of the noradrenaline, dopamine, serotonine and 5-hydroxy-indolylacetic acid contents of brain
The brains were homogenized in 10 parts by volume of 0.4 n perchloric acid. The homogenized mixture was stored at -20° C. overnight, thereafter it was thawed and centrifuged as described above. A sample of the homogenized mixture corresponding to 0.5 g of brain was removed, the pH of the sample was adjusted to 8.0±0.1 with 0.1 molar tris-buffer of the above composition, and the sample was processed as described above for the determination of the noradrenaline content of heart and spleen, with the difference that 1.5 ml of 0.05 n perchloric acid were applied as eluting agent. 0.5 ml of the eluate were applied to determine the noradrenaline and dopamine contents. The measurement was performed as described above, with the difference that samples of 0.5 ml were applied for the recording of the fluorescency of noradrenaline. The residua was placed for 50 minutes into a drying oven heated to 100° C., thereafter the sample was cooled with ice water, and the fluorescency of dopamine was recorded at wavelengths of 325 nm (excitation) and 380 nm (emission).
(§5) In a further test series the serotonine and 5-hydroxy-indolylacetic acid contents were also determined, beside the determination of the noradrenaline and dopamine content, from the same sample. In this instance the brains were homogenized in 10 ml of 75% ethanol, 0.2 ml of EDTA-Na2 and 5% of ascorbic acid were added to the homogenized mixtures, and the homogenized mixtures were maintained at -20° C. overnight. The mixtures were centrifuged as described above, and 5.0 ml samples of the supernatant were removed. The samples were diluted with equal volumes of distilled water, and poured onto ion exchange columns of 0.5×1.5 cm dimensions, filled with buffered Amberlite CG-30 (200 to 400 mesh). The columns were washed with 5 ml of distilled water followed by 1.0 ml of 0.2 n hydrochloric acid, and the first effluent and the aqueous wash were collected for the determination of 5-hydroxy-indolylacetic acid. Elution was continued with further 1.2 ml of 0.2 n hydrochloric acid in order to remove noradrenaline, dopamine and serotonine. Samples of 0.3 ml were used for the determinations.
(§6) Noradrenaline and dopamine were determined by the method of Shellenberger, modified as described above, whereas serotonine was determined by the method of Curzon et al. (Brit. J. Pharmacol. 39, 653/1970/). The basic method was modified as follows: A 0.5% solution of ortho-phthal(di)aldehyde in absolute ethanol was diluted with 10 n hydrochloric acid to 50-fold of its original volume, and 0.6 ml of the resulting 0.01% ortho-phthal(di)aldehyde solution were added immediately to 0.5 ml of the serotonine-containing sample. The sample was placed into a hot water bath for 10 minutes, thereafter cooled with tap water, and the fluorescency was recorded at wavelengths of 360 nm (excitation) and 490 nm (emission).
In the tests disulfiram, 2,2-dipyridyl, bis(1-methyl-4-homopiperazinyl-thriocaronyl)-disulfide, sodium diethyldithiocarbamate and N-phenyl-N'-(2-thiazolyl)-thiourea were applied as reference substances. […]

dopamine-β-hydroxylase [2] = experiment: Determination of the noradrenaline content of spleen; format: in vivo, male Wistar rats; details: i.p., 200 mg/kg, ± standard error
Description: as §1, §2, §3
(§7) Determination of the noradrenaline content of heart and spleen
(§8) The organs were weighed in frozen state and then homogenized in 5.0 ml of 0.4 n perchloric acid containing 0.05% of EDTA-Naa and 0.1% of Na2 S2 O5. The homogenized mixtures were centrifuged as described above for the treatment of adrenal gland, the supernatants were decanted, and the pH was adjusted to 8.0±0.1 with a 0.1 molar tris buffer containing 20 g/l of NaOH and 25 g/l of EDTA-Na2. 100 mg of prepared Al2 O3 (Anton et al.: J. Pharm. Ther. 138, 360/1962/) were added to the samples, and the mixtures were shaken mechanically for 20 minutes. Thereafter Al2 O3 was washed with 2×10 ml of distilled water, and noradrenaline was eluted with 1.0 ml of 0.05 n perchloric acid. 0.5 ml samples of the eluate were applied for the determination of noradrenaline. Noradrenaline was determined according to the method of Shellenberger et al. (Anal. Biochem. 39, 356/1971/), with the following modifications of the basic procedure: 0.5 ml of 0.1 molar Na-K-phosphate buffer, containing 9 g/l of EDTA-Na2, were added to 0.5 ml of the eluate, and the catecholamines (noradrenaline in the examination of heart and spleen and noradrenaline and dopamine in the examination of the cerebrum) were oxidized with 0.1 ml of a 0.1 n iodine solution in 5% potassium iodide. After exactly 2 minutes oxidation was stopped by adding 0.25 ml of a 2.5% sodium sulfite solution in 4.4 n aqueous sodium hydroxide to the mixture. 2 minutes after the introduction of the alkaline sulfite solution 0.2 ml of concentrated acetic acid were added to the samples, upon which the pH decreased to 4.4 to 4.5 Thereafter the samples were placed for 5 minutes into a drying oven heated to 100° C., and then the samples were cooled with ice water. The fluorescency of noradrenaline was measured with an OPTON spectrophotometer at wavelengths of 380 nm (excitation) and 490 nm (emission).
(§9) In the tests disulfiram, 2,2-dipyridyl, bis(1-methyl-4-homopiperazinyl-thriocaronyl)-disulfide, sodium diethyldithiocarbamate and N-phenyl-N'-(2-thiazolyl)-thiourea were applied as reference substances. The values indicated in Table 1 are the percentages in relation to the amine levels of the controls measured in the same tests (± standard error). The statistical calculations were performed on a TPA/i type computer, using Student's t test.

dopamine-β-hydroxylase [3] = experiment: Determination of the adrenaline content of adrenal gland; format: in vivo, male Wistar rats; details: i.p., ± standard error
Description: as §1, §2, §3
Determination of the adrenaline content of adrenal gland
The adrenal glands were freed from fat and homogenized in 3.0 ml of ice-cold 0.4 n perchloric acid. The homogenized mixtures were centrifuged for 10 minutes at 0° C. with a speed of 3200 r.p.m. using a Janetzky K-70 type centrifuge. 0.05 ml samples were taken from the supernatant, and the adrenaline level was determined directly by the method of Laverty et al. (Anal. Biochem. 22, 269/1968/).
as §9

dopamine-β-hydroxylase [4] = experiment: Determination of the noradrenaline content of heart; format: in vivo, male Wistar rats; details: i.p., ± standard error
Description: as §1, §2, §3, §7, §8, §9

[5] = test system: serotonine and 5-hydroxy-indolylacetic acid levels of the cerebrum; experiment: Determination of serotonine and 5-hydroxy-indolylacetic acid levels of brain; format: in vivo, male Wistar rats; details: Rattus norvegicus, ip, 200 mg/kg, 8 hours; ± standard error; read-out: Brain 5-HIAA (5-hydroxy-indolylacetic acid) level, percentages in relation to the controls
Description: as §2, §3, §4, §5, §6
5-Hydroxy-indolylacetic acid was determined from the mixture of the first effluent and the aqueous wash. 10 ml of distilled water and 0.2 ml of concentrated hydrochloric acid were added to the mixture, and the sample was poured onto a 0.8×4.0 cm column filled with Sephadex G-10. The column was washed with 15 ml of 0.1 n hydrochloric acid followed by 1.8 to 2.0 ml of 0.02 n aqueous ammonia, and then 5-hydroxyindolylacetic acid was eluted with further 2.0 ml of aqueous ammonia. 0.5 ml samples were used in the measurements, and the determination was performed according to the method of Korf et al. (Biochem. Pharmacol. 20, 659/1971/).
as §9

dopamine-β-hydroxylase [6] = details: literature; cited from earlier work

| Compound | Brain DA (dopamine) level, percentages in relation to the controls (dopamine-β-hydroxylase [1]; 200 mg/kg, 4 hours) | Brain NA (noradrenaline) level, percentages in relation to the controls (dopamine-β-hydroxylase [1]; 200 mg/kg, 4 hours) | Brain DA (dopamine) level, percentages in relation to the controls (dopamine-β-hydroxylase [1]; 200 mg/kg, 8 hours) | Brain NA (noradrenaline) level, percentages in relation to the controls (dopamine-β-hydroxylase [1]; 200 mg/kg, 8 hours) | Spleen NA (noradrenaline) level, percentages in relation to the controls (dopamine-β-hydroxylase [2]; 4 hours) | Spleen NA (noradrenaline) level, percentages in relation to the controls (dopamine-β-hydroxylase [2]; 8 hours) | Adrenal gland AD (adrenaline) level, percentages in relation to the controls (dopamine-β-hydroxylase [3]; 200 mg/kg, 4 hours) | Adrenal gland AD (adrenaline) level, percentages in relation to the controls (dopamine-β-hydroxylase [3]; 200 mg/kg, 8 hours) | Heart NA (noradrenaline) level, percentages in relation to the controls (dopamine-β-hydroxylase [4]; 200 mg/kg, 4 hours) | Heart NA (noradrenaline) level, percentages in relation to the controls (dopamine-β-hydroxylase [4]; 200 mg/kg, 8 hours) | dopamine-β-hydroxylase inhibiting effects, in words (dopamine-β-hydroxylase [6]) | other results |
| --- | --- | --- | --- | --- | --- | --- | --- | --- | --- | --- | --- | --- |
| C=CCNC1=C(C(=S)SSC(=S)C2=C(NCC=C)CCC2)CCC1 [Compound M-7, 2-(N-allyl)-amino-cyclopent-1-ene-thiocarboxylic acid-disulfide] | 123.6±8.1% | 50.5±5.2% | 104.7±5.7% | 64.5±4.4% | 66.1±18.1% | 88.5±33.9% | 93.3±8.0% | 69.8±6.8% | 100.0±3.9% | 91.8±3.7% |  |  |
| S=C(SSC(=S)C1=C(NC2CCCCC2)CCC1)C1=C(NC2CCCCC2)CCC1 [Compound M-5, 2-(N-cyclohexyl)-amino-cyclopent-1-ene-thiocarboxylic acid disulfide] | 124.2±4.0% | 64.6±1.8% | 116.2±3.3% | 76.9±2.2% | 83.2±8.9% | 68.7±6.7% | 109.0±2.3% | 105.6±3.3% | 94.7±6.8% | 89.5±3.0% |  |  |
| CCCCNC1=C(C(=S)SSC(=S)C2=C(NCCCC)CCC2)CCC1 [Compound M-2, 2-(N-butyl)-amino-cyclopent-1-ene-thiocarboxylic aciddisulfide] | 94.2±7.5% | 70.9±5.2% | 91.0±12.7% | 81.6±7.3% | 114.5±28.2% | 96.4±23.1% | 91.7±4.3% | 87.7±4.2% | 108.5±9.4% | 91.7±4.6% |  | Brain DA (dopamine) level, percentages in relation to the controls (dopamine-β-hydroxylase [1]; 100 mg/kg, 4 hours): 118.3±5.7%; Brain NA (noradrenaline) level, percentages in relation to the controls (dopamine-β-hydroxylase [1]; 100 mg/kg, 4 hours): 80.1±4.3%; response vs control in vivo at 200 mg/kg [5]: 126 ± 7.1%; Adrenal gland AD (adrenaline) level, percentages in relation to the controls (dopamine-β-hydroxylase [3]; 100 mg/kg, 4 hours): 81.0±8.5%; Heart NA (noradrenaline) level, percentages in relation to the controls (dopamine-β-hydroxylase [4]; 100 mg/kg, 4 hours): 91.5±5.2% |
| CC(N)Cc1ccccc1 (stereo not shown) [amphetamine] |  |  |  |  |  |  |  |  |  |  | possess dopamine-β-hydroxylase inhibiting effects |  |
| NNCc1ccccc1 [benzylhydrazine] |  |  |  |  |  |  |  |  |  |  | exert dopamine-β-hydroxylase inhibiting effects | duration of activity, in words (dopamine-β-hydroxylase [6]): exert their activities for a short period |
| O=C(CO)c1coc(=O)c2c(O)cccc12 [Oosponol] |  |  |  |  |  |  |  |  |  |  | strong dopamine-β-hydroxylase inhibiting effects |  |
| CCN(CC)C(=S)S [diethyl dithiocarbamate] |  |  |  |  |  |  |  |  |  |  | strong dopamine-β-hydroxylase inhibiting effects |  |
